Experiments:
[1] = system: Aβ1-40; assay: Clearance of Aβ1-40 injected in the hippocampal CA1 area (immunofluorescence); format: in vivo, rat; conditions: Aβ1-40-injected rats, 15 mg/kg per day for 14 days; hippocampal CA1
Procedure: Animals were divided into several groups ([…]). The Aβ1-40 group received bilateral intracerebral microinjection of Aβ1-40 fibrils once and saline intraperitoneally (i.p.) daily for 14 days. The Aβ1-40+MDA7 group received bilateral intracerebral microinjection of Aβ1-40 fibrils once and 15 mg/kg MDA7 i.p. daily for 14 days. Other cohorts received smaller doses of MDA7 (5 mg/kg or 1.5 mg/kg) i.p. daily for 14 days to determine the dose-response characteristics for MDA7. In other groups, AM630 (a CB2 antagonist) 5 mg/kg i.p. was administered daily for 14 days either alone (Aβ1-40+AM630 group) or 15 min prior to MDA7 (15 mg/kg i.p.) administration (Aβ1-40+MDA7+AM630 group) to rats injected with β1-40 fibrils. MDA7 group and control group received bilateral intracerebral microinjection of artificial cerebrospinal fluid (130 mM NaCl, 2.6 mM KCl. 4.3 mM MgCl2 and 1.8 mM CaCl2) once and 15 mg/kg MDA7 or saline i.p. daily for 14 days, respectively. Intraperitoneal administration of AM630, MDA7 or saline started on the same day after intracerebral microinjection of Aβ1-40. All drugs were prepared coded. Decoding was performed at the end of all experiments.
Microinjection of amyloid fibrils into the hippocampal CA1 area. Rats were anesthetized with sodium pentobarbital (45 mg/kg i.p.) and restrained in a stereotaxic apparatus. Aβ1-40 fibrils were formed as described previously. […]
Immunostaining. […] Three to six sections from each rat were randomly selected and were analyzed using Leica DMLB fluorescence microscope (Leica Microsystems Wetzlar GmbH, Germany) by one investigator, who was blinded to the origin of tissue being examined. Images were quantified using MCID Core software version 7.0 (InterFocus Imaging Ltd, Cambridge, England).

[2] = target: T1, rCB2 (Rattus norvegicus, UniProt Q9QZN9); conditions: cited from earlier work
T1 sequence (Q9QZN9 1-360): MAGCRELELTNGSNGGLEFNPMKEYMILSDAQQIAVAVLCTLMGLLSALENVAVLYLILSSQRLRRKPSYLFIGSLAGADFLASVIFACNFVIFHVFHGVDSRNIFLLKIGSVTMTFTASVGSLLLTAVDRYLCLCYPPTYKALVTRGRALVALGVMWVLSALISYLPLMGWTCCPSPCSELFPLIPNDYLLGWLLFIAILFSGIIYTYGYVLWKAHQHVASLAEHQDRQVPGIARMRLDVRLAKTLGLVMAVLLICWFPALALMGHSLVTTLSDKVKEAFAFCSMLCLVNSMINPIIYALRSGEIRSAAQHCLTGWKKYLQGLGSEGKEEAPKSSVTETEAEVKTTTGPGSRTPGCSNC

[3] = target: hCB1 (Homo sapiens, UniProt P21554); conditions: cited from earlier work
Chain of hCB1 (P21554 whole entry): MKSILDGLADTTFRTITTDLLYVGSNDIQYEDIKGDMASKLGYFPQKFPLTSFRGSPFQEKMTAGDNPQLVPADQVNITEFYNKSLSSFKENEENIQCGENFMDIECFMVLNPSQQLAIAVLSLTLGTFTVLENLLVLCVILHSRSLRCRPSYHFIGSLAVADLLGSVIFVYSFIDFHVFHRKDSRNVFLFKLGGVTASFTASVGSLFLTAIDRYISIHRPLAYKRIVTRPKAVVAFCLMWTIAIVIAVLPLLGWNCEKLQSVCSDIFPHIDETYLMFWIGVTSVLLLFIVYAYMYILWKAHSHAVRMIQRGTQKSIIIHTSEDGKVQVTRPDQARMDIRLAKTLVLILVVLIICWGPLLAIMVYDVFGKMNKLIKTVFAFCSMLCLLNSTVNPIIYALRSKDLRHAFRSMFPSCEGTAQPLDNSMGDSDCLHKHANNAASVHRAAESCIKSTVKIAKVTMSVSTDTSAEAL

In the case of `CC1(Cc2ccccc2)COc2cc(C(=O)N3CCCCC3)ccc21` (stereo not drawn) [MDA7, 3-benzyl-3-methyl-2,3-dihydrobenzofuran-6-carboxylic acid-piperidine amide], the “clearance of injected Aβ1-40” value [1] is given as “induced removal of Aβ1-40”, the EC50 [2] is given as 67 nM and the “EC50 at hCB1” value [3] is given as “not active”.

From US11160798B2, “Neuroprotective CB2 receptor agonists” (THE CLEVELAND CLINIC FOUNDATION, priority 2012, dated 2021)
